Test results: PMC6257762, “Isoquinolines from the Roots of Thalictrum flavum L. and Their Evaluation as Antiparasitic Compounds” (Molecules, 2010)
Several values for one entry are separate records, joined by “and”; a condition that tells them apart may be missing. Equal entries are not always repeated. Where two headings read alike, the source gives them in different places.

Columns and labels:
MCR-5 cells = assay: Cytotoxicity towards MCR-5 (MRC5) cells; assay type: cell-based
Procedure: (§1) 3.3. Evaluations of cytotoxicity towards MCR-5 and KB cells
(§2) Cytotoxicities were evaluated at the ICSN-CNRS (Gif sur Yvette, France) on MRC5 and KB cells, in DMSO, at 10 and 1 µg/mL according to the procedure described by Moret et al..

KB cells = assay: Cytotoxicity towards KB cells; assay type: cell-based
Procedure: as §1, §2

[1] = system: Plasmodium falciparum FcB1 Colombia; assay: In vitro P. falciparum culture antimalarial activity assay; assay type: cell-based
Procedure: 3.4. In vitro P. falciparum culture and activity assays
Antimalarial activity was evaluated on FcB1 Colombia strain of Plasmodium falciparum according to a previously described procedure.

Leishmania major = assay: In vitro leishmanicidal activity, promastigote susceptibility (Uptiblue micromethod); assay type: cell-based; conditions: promastigotes, MHOM/Il/81/BNI, 96 h at 26 °C
Procedure: 3.5. In vitro leishmanicidal activity
Leishmania major (MHOM/Il/81/BNI) was cultivated at 26 °C in a Schneider’s insect medium (Sigma, St Quentin Fallavier, France) supplemented with 15% foetal bovine serum (FBS) (Sigma), penicillin (100 IU/mL) and streptomycin (50 µg/mL). Exponentially growing cells were maintained at 26 °C. Promastigote susceptibility testing was performed with the Uptiblue® micromethod previously described. Briefly, 100 µL of a […] promastigotes/mL suspension were placed into wells of a 96-well microplate (Nunc®). The cultures were exposed for 96 h at 26 °C to the antileishmanial drugs at the concentrations used above, except for meglumine antimoniate for which dilutions were 0.2, 2 and 20 mg·mL^-1. Four h before measurement, 10 µL of Uptiblue® were added. The fluorescence was measured at 590 nm with an excitation at 550 nm.

[2] = design: method as in PMID 17109902; conditions: quaternary protoberberines, as expected; cited from earlier work
[3] = Plasmodium falciparum, FCB1, read-out: Antimalarial IC50 Plasmodium falciparum FcB1 Colombia
[4] = Plasmodium falciparum, FcB1 Colombia strain, read-out: Antimalarial IC50 Plasmodium falciparum FcB1 Colombia

Row | Compound | Cytotoxicity MCR-5 cells 10 µg/mL (MCR-5 cells; human, 10 µg/mL) | IC50 [1, 4] | IC50 (Leishmania major; Leishmania major) | further results
1 | COc1cc2c(cc1OC)-c1c3c(c(OC)c4c1[C@H](C2)NCC4)OCO3 [(+)-O-Methylcassythine 7, (+)-O-methylcassythine] | 61 | 8.6 µM | – | Cytotoxicity MCR-5 cells 1 µg/mL (MCR-5 cells; human, 1 µg/mL): 4; Cytotoxicity KB cells 10 µg/mL (KB cells): 49; IC50 [1, 3]: 3.1 µg/mL
2 | COc1cc2cc3[n+](cc2cc1OC)CCc1cc2c(cc1-3)OCO2 [Pseudoberberine 12, pseudoberberine] | – | 0.5 µg/mL and 1.3 µM | 3.5 µg/mL and 9 µM | Cytotoxicity (in words) [2]: cytotoxic
3 | COc1cc2c(cc1OC)-c1c(O)c(OC)c(OC)c3c1[C@H](C2)N(C)CC3 [(+)-Preocoteine 1, (+)-preocoteine] | 20 | 1.3 µM | > 100 µg/mL and > 100 µM | Cytotoxicity KB cells 10 µg/mL (KB cells): 23; IC50 [1, 3]: 0.5 µg/mL
4 | CCN(CC)CCCC(C)Nc1ccnc2cc(Cl)ccc12 (stereo not shown) [Chloroquine, reference compound] | – | – | – | IC50 [1, 3]: 0.06 µg/mL and 100 nM
5 | N=C(N)c1ccc(OCCCCCOc2ccc(C(=N)N)cc2)cc1 [Pentamidine, reference compound] | – | – | 28 µg/mL and 82 µM | –
6 | COc1cc2c(cc1OC)C(Cc1ccc(O)cc1)N(C)CC2 (single isomer, unassigned; (-)) [(-)-Armepavine 9, (-)-armepavine] | 0 | 3.6 µg/mL and 11.4 µM | – | –
7 | COc1cc2c3c(c1OC)Oc1c(OC)c(OC)cc4c1C(Cc1ccc(O)c(c1)Oc1ccc(cc1)CC2N(C)CC3)N(C)CC4 (single isomer, unassigned; (-)) [(-)-Thalfoetidine 4, (-)-thalfoetidine] | 62 | 2.1 µg/mL and 3.3 µM | 17 µg/mL and 27 µM | Cytotoxicity MCR-5 cells 1 µg/mL (MCR-5 cells; human, 1 µg/mL): 0
8 | COc1ccc2cc3[n+](cc2c1OC)CCc1cc2c(cc1-3)OCO2 [Berberine 11, berberine] | – | 0.4 µg/mL and 900 nM | 13 µg/mL and 35 µM | Cytotoxicity (in words) [2]: cytotoxic
9 | COc1ccc2cc1Oc1ccc(cc1)CC1c3cc(OC)c(OC)c(c3CCN1C)Oc1c(OC)c(OC)cc3c1C(C2)NCC3 (single isomer, unassigned; (-)) [(-)-Northalidasine 2, (-)-northalidasine] | 0 | 3.4 µg/mL and 5.2 µM | 27 µg/mL and 41 µM | –
10 | COc1cc2c3c(c1OC)Oc1c(OC)c(OC)cc4c1C(Cc1ccc(O)c(c1)Oc1ccc(cc1)CC2N(C)CC3)NCC4 (single isomer, unassigned; (-)) [(-)-Northalfoetidine 5, (-)-northalfoetidine] | 6 | 2.8 µg/mL and 4.5 µM | 39 µg/mL and 63 µM | –
11 | (+)-thalicberine [(+)-Thalicberine 8] | – | – | – | Cytotoxicity MCR-5 cells 10 µg/mL (MCR-5 cells): 29; Cytotoxicity KB cells 10 µg/mL (KB cells): 43; Antimalarial IC50 Plasmodium falciparum FcB1 Colombia ([1]; FcB1 Colombia strain): 2.5 µg/mL; IC50 ([1]; FcB1 Colombia strain, read-out: Antimalarial IC50 Plasmodium falciparum FcB1 Colombia): 4.2 µM; IC50 (Leishmania major): 90 µM; Leishmanicidal IC50 Leishmania major (Leishmania major): 55 µg/mL
12 | COc1cc(CCN(C)C)c2ccc3cc4c(c5c(=O)oc1c2c35)OCO4 [Thaliglucinone 10, thaliglucinone] | – | 6.7 µM | 63 µg/mL and 173 µM | Cytotoxicity MCR-5 cells 1 µg/mL (MCR-5 cells; MCR-5 (MRC5) cells, compound at 1 µg/mL in DMSO): 21; Cytotoxicity MCR-5 cells 10 µg/mL (MCR-5 cells; MCR-5 (MRC5) cells, compound at 10 µg/mL in DMSO): 79; IC50 [1, 3]: 2.4 µg/mL
13 | COc1cc2c3c(c1O)Oc1c4c(cc(OC)c1OC)C(Cc1ccc(cc1)Oc1cc(ccc1O)CC3N(C)CC2)N(C)CC4 (single isomer, unassigned; (-)) [(-)-Thaligosidine 6, (-)-thaligosidine] | 61 | 1.2 µg/mL and 2 µM | 38 µg/mL and 61 µM | Cytotoxicity MCR-5 cells 1 µg/mL (MCR-5 cells; human, 1 µg/mL): 0
14 | COc1ccc2cc1Oc1ccc(cc1)CC1c3cc(OC)c(OC)c(c3CCN1C)Oc1c(O)c(OC)cc3c1C(C2)NCC3 (single isomer, unassigned; (-)) [(-)-Northalrugosidine 3, (-)-northalrugosidine] | 77 | 2.7 µg/mL and 4.3 µM | 30 µg/mL and 48 µM | Cytotoxicity MCR-5 cells 1 µg/mL (MCR-5 cells; human, 1 µg/mL): 0
